Assay: Absorption after 8 hours of topical antiinflammatory formulations with or without 3% PFPE through pig skin, Franz cells (Example C)
Format: in vitro ADME
Settings: topical formulation; for mcg of permeated active ingredient after 8 hours, Base formula: base formula without PFPE
Method: Apparatus: Franz Cells (manufacturer: Crown Glass Company Inc., New Jersey) Franz diffusion cells are one of the main systems used for the investigation of ex-vivo permeation. This study involved the use of three cells each with a 9 mm diameter donor compartment corresponding with a diffusion area of 64 mm^2. The receptor compartment has a capacity of 4.8 ml. The receptor chamber is heated to 37° C.± 1. The pig skin is placed between the donor compartment and the receptor chamber with the external skin surface facing the upper compartment. The test formulation is placed inside the donor compartment. The receptor chamber is filled with a phosphate buffer solution at pH 7.4 and at intervals between 0.5 and 8 hours, 2 ml of solution are drawn from this chamber. When each sample is taken fresh buffer solution heated to 37° C. is added in order to replenish the initial volume. The samples are then tested using a HPLC method. Each test is repeated three times. Verification of absorption after 8 hours, of topical formulations containing antiinflammatory drugs versus formulations which also contain 3% PFPE, through pig skin, using Franz cells, as described in Example A.

Row | SMILES | mcg of permeated active ingredient after 8 hours, Base formula + 3% PFPE [µg] | mcg of permeated active ingredient after 8 hours, Base formula [µg]
1 | CC(C)Cc1ccc(C(C)C(=O)O)cc1 (centres unmarked) [Ibuprofen] | 6.84 | 0.21
2 | CCc1cccc2c3c([nH]c12)C(CC)(CC(=O)O)OCC3 (centres unmarked) [Etodolic Acid] | 9.93 | 0.53
3 | O=C(O)Cc1ccccc1Nc1c(Cl)cccc1Cl [Diclofenac Sodium] | 8.66 | 1.82
4 | CN1C(C(=O)Nc2ccccn2)=C(O)c2ccccc2S1(=O)=O [Piroxicam] | 7.94 | 1.19

Reference: US7026360B1, “Pharmaceutical compositions containing compounds with activity for the enhancement of absorption of active ingredients” (Inpharma S.A., priority 1999, dated 2006)
